Test results: patent US11471448B2 (priority 2020, dated 2022)
Counter-ions that a name gives are not always drawn.

Legend:
[1] = test system: SARS-CoV-2 clinical isolate (2019-nCoV/USA-WA1/2020); assay: Anti-viral activity against SARS-CoV-2 in HBEC air-liquid-interface cultures (apical viral titer by TCID50); format: cell-based
[2] = test system: patients with severe COVID-19 pneumonia; assay: Randomized, double-blind, placebo-controlled Phase 2/3 study of opaganib in COVID-19 pneumonia (baseline FiO2 up to 60% subgroup)
[3] = test system: patients with COVID-19 pneumonia; assay: Pilot study / compassionate use of opaganib in hospitalized COVID-19 pneumonia patients; format: in vivo, human
From the text: Return to room air or a specific SpO2 oxygen saturation on room air. Assessment of on-treatment viral load changes, and changes in D-dimer, cardiac troponin, LDH and ferritin levels. Study Design:
Patients entered a screening period of up to 1 week. Eligible patients entered the treatment period for up to 2 weeks. All participants were followed for 2 weeks after their last dose of study drug, at the end of the 2 week treatment period, or once they had 2 consecutive daily negative viral swabs for the COVID-19 virus or at after premature drug discontinuation prior to Day 14. The maximum duration of study participation was 35 days […].
• 1. Adult male or female≥18 to ≤75 years of age, inclusive • 2. Proven COVID-19 infection and pneumonia not requiring mechanical ventilation or mechanically ventilated for no more than 24 hours at time of informed consent • 3. The patient, guardian or legally acceptable representative has signed a written IRB-approved informed consent. Key Exclusion Criteria: • 1. New York Heart Association Class III or IV, cardiac disease, myocardial infarction within the past 6 months, unstable arrhythmia, or evidence of ischemia on ECG • 2. Any co-morbidity that may add risk to the treatment in the judgement of the investigator. • 3. Pregnant (positive serum test) or nursing women • 4. Unwillingness or inability to comply with procedures required in this protocol. • 5. AST (SGOT) or ALT (SGPT)>2.5× upper limit of normal (ULN) • 6. Bilirubin>1.5×ULN (except where bilirubin increase is due to Gilbert's Syndrome) • 7. Serum creatinine>2.0×ULN • 8. Absolute neutrophil count<1000 cells/mm^3 • 9. Platelet count<75,000/mm^3 • 10. Hemoglobin<8.0 g/dL • 11. Currently taking warfarin, apixaban, argatroban or rivaroxaban • 12. Current drug or alcohol abuse Study Assessments: The following will be monitored daily (see Table 3): • Review of concomitant medications • Adverse Events • Physical exam • Vital signs (temperature, blood pressure, pulse rate, respiratory rate and oxygen saturation by pulse oximeter) • Clinical symptoms (cough, dyspnea, nausea, vomiting, diarrhea) • Nasopharyngeal viral swab • Serum chemistry • CBC with differential • Chest X-ray • Urinalysis
Each dose is administered with food or 15-30 minutes after tube-feeding, where appropriate.
These patients had moderate to severe COVID-19-related pneumonia with hypoxia on supplemental oxygen.
Five patients were included in the analysis, and for comparison purposes, we used a control group with same-sex, same-severity patients (baseline characteristics). Univariate comparisons between the groups were performed with chi-square test for categorical variables and t-test or MannWhitney U-test for continuous variables, as appropriate. Time variables were compared with Cox proportional hazard regression, adjusted for age and background illnesses. CRP and lymphocyte changes were compared utilizing a repeated measures general linear model with a Bonferroni correction for multiple comparison.

[4] = test system: human bronchial epithelial cells (HBEC)
[5] = of 6 moderate-to-severe patients

O=C(NCc1ccncc1)C12CC3CC(C1)CC(c1ccc(Cl)cc1)(C3)C2 [opaganib, 3-(4-chlorophenyl)-adamantane-1-carboxylic acid (pyridin-4-ylmethyl) amide, hydrochloride salt]
50% inhibition reached in the concentration range tested ([1]; 0.05 to 11.25 μg/ml): neither 50% inhibition nor 50% cytotoxicity were reached
concentration from which complete inhibition of infectious virus production is seen ([1]; SARS-CoV-2-infected HBEC, 3 days incubation): ≥ 1 µg/mL
overall adverse events vs. placebo group ([2]; 500 mg Q12 hours, 14 days): balanced
patients reaching room air by Day 14 (no supplemental oxygen for at least 24 hours) ([2]; baseline FiO2 up to 60%, 90/117 patients, placebo 85/134 (63.5%)): 77%
efficacy benefit in mortality, Sensitivity Analysis ([2]; baseline FiO2 up to 60%, nominal p-value=0.033): 64%
mortality (deaths/patients), Sensitivity Analysis ([2]; baseline FiO2 up to 60%, placebo 16/134): 5/117
efficacy benefit in reaching room air by Day 14 ([2]; baseline FiO2 up to 60%, vs. placebo, nominal p-value=0.033): 21%
median time to discharge ([2]; baseline FiO2≤60% (251 patients), placebo 14 days): 10 days
Time to a score of <=3 on the WHO Ordinal Scale: Kaplan-Meier Median ([2]; baseline FiO2≤60%, 95% CI (7.00-9.00), placebo 10.00): 8.00 days
Patients With an Improvement of 2 or More on the WHO Ordinal Scale Compared to Baseline by Day 14 ([2]; baseline FiO2≤60%, N = 117): 93 (79.49) n (%)
Time to Discharge by day 42: Number of Events ([2]; baseline FiO2≤60%, N = 117): 81 (69.2) n (%)
Time to a score of <=3 on the WHO Ordinal Scale: Number of Events ([2]; baseline FiO2≤60%, N = 117): 93 (79.5) n (%)
Time to Discharge by day 42: Difference and 95% CI (opaganib vs. placebo) ([2]; baseline FiO2≤60%, p-value 0.0022): −4.48 (−7.34, −1.62) days
Difference in Rates (Opaganib-Placebo), improvement of 2 or more on the WHO Ordinal Scale by Day 14 ([2]; baseline FiO2≤60%, p-value 0.023): 13.82%
Time to Discharge by day 42: Kaplan-Meier Mean (Restricted Mean Analysis) ([2]; baseline FiO2≤60%, placebo 17.89): 13.41 days
mortality (deaths/patients) ([2]; mITT with baseline FiO2 up to 60%, through Day 42, placebo 21/134): 7/117
reduction in mortality ([2]; mITT with baseline FiO2 up to 60%, vs. placebo, nominal p-value=0.019): 62%
HR, time to weaning from HFNC, cases vs. controls ([3]; 95% CI: 0.07-1.7, p=0.2, Cox regression adjusted for age and background illnesses): 0.3
HR, time to ambient air, cases vs. controls ([3]; 95% CI: 0.15-1.5): 0.4
Lymphocytes, most recent ([3]; Patient 1 (14 d), baseline 1.6, 17 Apr. 2020): 2.8 (17 Apr. 2020) 10^3/mm^3
CRP, most recent ([3]; Patient 1 (14 d), baseline 15.1, 17 Apr. 2020): 1 (17 Apr. 2020) mg/L
Clinical Assessment ([3]; Patient 1 (14 d on opaganib), started severe on maximal OptiFlow 3 Apr. 2020): 3 Apr. 2020; RA by 16/4. As of 22/4, one negative
Lymphocytes, most recent ([3]; Patient 2 (14 d), baseline 1.1, 17 Apr. 2020): 2.1 (17 Apr. 2020) 10^3/mm^3
CRP, most recent ([3]; Patient 2 (14 d), baseline 14.2, 17 Apr. 2020): 4.8 (17 Apr. 2020) mg/L
Clinical Assessment ([3]; Patient 2 (14 d), started severe+, planning for intubation 7 Apr. 2020): 7 Apr. 2020; RA by 20 Apr. 4 2020, D/C on
Lymphocytes, most recent ([3]; Patient 3 (7 d), baseline 0.9, 17 Apr. 2020): 1.2 (17 Apr. 2020) 10^3/mm^3
CRP, most recent ([3]; Patient 3 (7 d), baseline 10.7, 17 Apr. 2020): 1.7 (17 Apr. 2020) mg/L
Clinical Assessment ([3]; Patient 3 (7 d), moderate-severe, on OptiFlow 13 Apr. 2020, RA by 17 Apr. 2020): 17 Apr. 2020, D/C on 19 Apr. 2020
Lymphocytes, most recent ([3]; Patient 4 (11 d), baseline 1.2, 22 Apr. 2020): 1 (22 Apr. 2020) 10^3/mm^3
CRP, most recent ([3]; Patient 4 (11 d), baseline 24.8, 22 Apr. 2020): 17.4 (22 Apr. 2020) mg/L
Clinical Assessment ([3]; Patient 4 (11 d), started severe+ 70% OptiFlow on 13 Apr. 2020): RA on 22 Apr. 2020
Clinical Assessment ([3]; Patient 5 (2 d), started moderate on 13 Apr. 2020, nasal cannula, D/C on 14 Apr. 2020 on RA): Dramatic improvement after one day on
Lymphocytes, most recent ([3]; Patient 6 (5 d), baseline 1.35, 24 Apr. 2020): 1.96 (24 Apr. 2020) 10^3/mm^3
CRP, most recent ([3]; Patient 6 (5 d), baseline 12.2, 24 Apr. 2020): 6.8 (24 Apr. 2020) mg/L
adverse event leading to discontinuation ([3]; Patient 7 (1 d), also on HCQ and azithromycin, may or may not be related to opaganib): opaganib started. Diarrhea the next day, all 3 meds were stopped, followed by worsening SOB, on 75% OptiFlow.
C-Reactive Protein (CRP) ([3]; all six patients): reduction
clinical improvement, including reduced supplemental oxygenation and higher lymphocyte counts ([3]; all six patients): measurable clinical improvement
median time to weaning from high-flow nasal cannula (HFNC) ([3]; cases, controls 15 days): 10 days
cases requiring mechanical ventilation ([3]; compared with 33% of controls): none
lymphocyte count change vs. matched controls ([3]; five patients vs. same-sex, same-severity control group): significantly faster increase
patients back to breathing room air [3, 5]: 5 patients
patients discharged from hospital [3, 5]: 3 patients
moderate to-severe patients improved significantly ([3]; of 6 patients treated (patient #7 excepted), opaganib plus standard-of-care): 6 patients
cell viability [4]: remained viable
50% cytotoxicity reached in the concentration range tested ([4]; human): neither 50% inhibition nor 50% cytotoxicity were reached
